Experimental data published in US20170052170A1, “NOVEL CELL LINES AND METHODS” (priority 2009, published 2017).

Molecular target: T1, sweet taste receptor (T1R2, T1R3 endogenous) (Homo sapiens, UniProt Q7RTX0+Q8TE23)
T1 construct: endogenous in cells; host or cells: HuTu (ATCC HTB-40), H716 (ATCC CCL-251), HEK 293T (ATCC CRL-11268); some with prior UV treatment
T1 sequence (Q8TE23 20-839): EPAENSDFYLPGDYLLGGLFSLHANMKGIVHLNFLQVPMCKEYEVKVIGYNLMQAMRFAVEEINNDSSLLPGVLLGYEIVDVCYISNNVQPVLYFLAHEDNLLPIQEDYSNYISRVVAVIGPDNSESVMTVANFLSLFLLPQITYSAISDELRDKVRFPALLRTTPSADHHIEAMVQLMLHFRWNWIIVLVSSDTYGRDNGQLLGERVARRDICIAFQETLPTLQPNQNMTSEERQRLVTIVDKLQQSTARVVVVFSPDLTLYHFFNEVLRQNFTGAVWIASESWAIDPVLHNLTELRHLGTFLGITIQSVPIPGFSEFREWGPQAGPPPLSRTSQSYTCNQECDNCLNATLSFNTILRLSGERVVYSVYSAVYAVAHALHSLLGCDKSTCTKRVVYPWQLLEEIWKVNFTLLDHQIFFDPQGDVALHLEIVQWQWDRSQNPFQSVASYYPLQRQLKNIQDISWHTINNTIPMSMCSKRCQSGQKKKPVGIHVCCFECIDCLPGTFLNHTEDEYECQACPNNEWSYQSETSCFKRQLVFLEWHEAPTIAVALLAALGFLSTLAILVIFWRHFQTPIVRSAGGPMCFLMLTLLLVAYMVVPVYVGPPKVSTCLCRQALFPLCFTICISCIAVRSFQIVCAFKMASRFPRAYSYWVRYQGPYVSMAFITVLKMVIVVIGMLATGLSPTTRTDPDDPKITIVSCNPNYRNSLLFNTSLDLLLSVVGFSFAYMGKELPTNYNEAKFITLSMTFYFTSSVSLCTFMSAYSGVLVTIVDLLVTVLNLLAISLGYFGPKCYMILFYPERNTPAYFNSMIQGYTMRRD
T1 sequence (Q7RTX0 21-852): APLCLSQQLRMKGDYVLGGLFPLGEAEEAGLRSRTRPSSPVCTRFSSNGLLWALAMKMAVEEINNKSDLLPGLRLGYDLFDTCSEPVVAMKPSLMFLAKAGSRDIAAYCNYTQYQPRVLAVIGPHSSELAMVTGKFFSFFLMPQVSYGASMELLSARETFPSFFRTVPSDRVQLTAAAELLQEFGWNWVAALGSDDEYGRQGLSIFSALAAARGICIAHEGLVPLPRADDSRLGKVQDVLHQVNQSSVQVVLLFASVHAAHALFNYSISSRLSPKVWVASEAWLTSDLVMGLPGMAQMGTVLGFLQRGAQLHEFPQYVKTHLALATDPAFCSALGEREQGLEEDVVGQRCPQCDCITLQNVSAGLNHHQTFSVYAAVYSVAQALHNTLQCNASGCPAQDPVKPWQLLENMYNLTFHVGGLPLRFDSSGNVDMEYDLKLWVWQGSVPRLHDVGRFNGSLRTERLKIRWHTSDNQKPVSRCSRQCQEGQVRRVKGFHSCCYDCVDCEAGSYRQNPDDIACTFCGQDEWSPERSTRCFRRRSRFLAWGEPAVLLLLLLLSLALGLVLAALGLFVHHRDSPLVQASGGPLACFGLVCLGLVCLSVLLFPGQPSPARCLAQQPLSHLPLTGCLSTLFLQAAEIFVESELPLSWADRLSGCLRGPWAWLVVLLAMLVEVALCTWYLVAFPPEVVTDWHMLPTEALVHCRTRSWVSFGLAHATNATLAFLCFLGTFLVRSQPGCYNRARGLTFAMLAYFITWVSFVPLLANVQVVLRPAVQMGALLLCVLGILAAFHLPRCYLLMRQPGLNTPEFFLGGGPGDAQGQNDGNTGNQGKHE
Experiment: Calcium flux assay, cells endogenously expressing at least one sweet receptor subunit
Format: cell-based
Details: 15 mM fructose
Protocol: Populations of cells each resulting from the expansion of single isolated cells then were characterized for their ability to respond to a sweet ligand using functional cell-based assays. 15 mM fructose was used in these experiments. Depending on the cell type, different conditions were used as described below.
Forty-eight hours prior to assay, cells were seeded in growth media (L15 media (Sigma #L5520) supplemented with 10% serum (Sigma #SAC1203C), 4 mM L-Glutamine (Sigma G7513), 10 mM HEPES (Sigma H0887), and a […] of penicillin/streptomycin solution (final concentration 100 units penicillin/100 μG streptomycin per mL) (Sigma # P4458) at a high density, from 12 to 20 million cells, in 10 cm dishes. Cells were dissociated from the culture matrix and were seeded at 35,000 cells per well 24 hours prior to assay in 384 well plates. Media was removed after 18 to 24 hours. A calcium-sensitive fluorescent dye (Fluo-4, Invitrogen) diluted in sweet assay buffer (130 mM NaCl, 1.1mMKH2PO4, 1.3 mM CaCl, 20 mM HEPES and 3mMNaHPO4*7H20) was added then to each well. Cells were incubated in this media for 1 hour. Plates then were loaded on a high throughput plate reader (Hamamatsu FDSS). […] Calcium flux or assay response was detected prior to, during and following addition of sweet assay buffer containing fructose to each well for a final concentration of 15 mM fructose. […]
Alternatively, cells were dissociated from the culture matrix and were seeded at cell densities from 2,500 to 20,000 per well for 24 or 48 hours prior to assay in Eagle's Minimal Essential Media (Sigma #D5650) containing 10% FBS (Sigma #2442), 2 mM L-Glutamine (Sigma #G7513) and 1 mM Sodium Pyruvate (Sigma #S8636) or a mixture of equal parts of this media and L-15 media (Sigma, L5520) in a 384 well plate. […] Plates then were loaded on a high throughput plate reader (Hamamatsu FDSS). […] Calcium flux or assay response was detected prior to, during and following addition of sweet assay buffer containing fructose to each well for a final concentration of 15 mM fructose. […]

Measured: response in calcium flux reporter assay

O=C(CO)[C@@H](O)[C@H](O)[C@H](O)CO [fructose]
responding to fructose: 293T cells, FIG. 28C | H716 cells, FIG. 28B | HuTu cells, FIG. 28A
